{"source": "the supplement of paper PMC10307832", "assay_in_all_cases": "relative viability (nuclei count vs DMSO), 5 days (fraction); higher = more cells survive", "key": {"[1]": {"system": "SW 1573", "method_in_brief": "(§1)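 The day after seeding in 1536-well plates, lung cancer cell lines were treated by pin tool with a single drug, or with a fixed anchor-drug dose together with five library-drug doses (not always all listed) in √10 steps. After 5 days, a combined fix-and-stain solution (final 0.05% Triton X-100, 1% formaldehyde, 1 ug/ml Hoechst) was added. Nuclei counted on 4× images gave relative viability as treated counts over vehicle counts, reported as the median of duplicate plates.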"}, "[2]": {"system": "ChaGo-K-1", "method_in_brief": "as §1"}, "[3]": {"system": "LOU-NH91", "method_in_brief": "as §1"}, "[4]": {"system": "NCI-H1666", "method_in_brief": "as §1"}, "[5]": {"system": "SK-LU-1", "method_in_brief": "as §1"}, "[6]": {"system": "NCI-H3122", "method_in_brief": "as §1"}, "[7]": {"system": "RERF-LC-KJ", "method_in_brief": "as §1"}, "[8]": {"system": "NCI-H1563", "method_in_brief": "as §1"}, "[9]": {"system": "NCI-H2126", "method_in_brief": "as §1"}, "[10]": {"system": "NCI-H23", "method_in_brief": "as §1"}, "[11]": {"system": "SW 900", "method_in_brief": "as §1"}, "[12]": {"system": "EMC-BAC-2", "method_in_brief": "as §1"}, "[13]": {"system": "NCI-H2405", "method_in_brief": "as §1"}, "[14]": {"system": "NCI-H322M", "method_in_brief": "as §1"}, "[15]": {"system": "HCC-827", "method_in_brief": "as §1"}, "[16]": {"system": "NCI-H1975", "method_in_brief": "as §1"}, "[17]": {"system": "LXF-289", "method_in_brief": "as §1"}, "[18]": {"system": "EPLC-272H", "method_in_brief": "as §1"}, "[19]": {"system": "LK-2", "method_in_brief": "as §1"}, "[20]": {"system": "NCI-H2085", "method_in_brief": "as §1"}, "[21]": {"system": "LU99A", "method_in_brief": "as §1"}, "[22]": {"system": "LCLC-103H", "method_in_brief": "as §1"}}, "data": [{"smiles": "Oc1nc(-c2ccc(C(F)(F)F)cc2)nc2c1CSCC2", "note": "[XAV939] + CCNC(=O)c1noc(-c2cc(C(C)C)c(O)cc2O)c1-c1ccc(CN2CCOCC2)cc1 [Luminespib] (partner 0.01 µM)", "values": [{"measurement": "relative viability", "setting": "[1]; first compound 0.08 µM", "value": 0.691}, {"measurement": "relative viability", "setting": "[1]; first compound 0.253 µM", "value": 0.249}, {"measurement": "relative viability", "setting": "[1]; first compound 0.8 µM", "value": 0.136}, {"measurement": "relative viability", "setting": "[1]; first compound 2.53 µM", "value": 0.226}, {"measurement": "relative viability", "setting": "[2]; first compound 0.08 µM", "value": 0.586}, {"measurement": "relative viability", "setting": "[2]; first compound 0.253 µM", "value": 0.384}, {"measurement": "relative viability", "setting": "[2]; first compound 0.8 µM", "value": 0.508}, {"measurement": "relative viability", "setting": "[2]; first compound 2.53 µM", "value": 0.523}, {"measurement": "relative viability", "setting": "[3]; first compound 0.08 µM", "value": 0.322}, {"measurement": "relative viability", "setting": "[3]; first compound 0.253 µM", "value": 0.337}, {"measurement": "relative viability", "setting": "[3]; first compound 0.8 µM", "value": 0.432}, {"measurement": "relative viability", "setting": "[3]; first compound 2.53 µM", "value": 0.295}, {"measurement": "relative viability", "setting": "[4]; first compound 0.08 µM", "value": 1.07}, {"measurement": "relative viability", "setting": "[4]; first compound 0.253 µM", "value": 0.666}, {"measurement": "relative viability", "setting": "[4]; first compound 0.8 µM", "value": 0.981}, {"measurement": "relative viability", "setting": "[4]; first compound 2.53 µM", "value": 0.848}, {"measurement": "relative viability", "setting": "[5]; first compound 0.08 µM", "value": 0.201}, {"measurement": "relative viability", "setting": "[5]; first compound 0.253 µM", "value": 0.193}, {"measurement": "relative viability", "setting": "[5]; first compound 0.8 µM", "value": 0.207}, {"measurement": "relative viability", "setting": "[5]; first compound 2.53 µM", "value": 0.246}, {"measurement": "relative viability", "setting": "[6]; first compound 0.08 µM", "value": 0.0855}, {"measurement": "relative viability", "setting": "[6]; first compound 0.253 µM", "value": 0.0791}, {"measurement": "relative viability", "setting": "[6]; first compound 0.8 µM", "value": 0.0658}, {"measurement": "relative viability", "setting": "[6]; first compound 2.53 µM", "value": 0.0658}, {"measurement": "relative viability", "setting": "[7]; first compound 0.08 µM", "value": 1.21}, {"measurement": "relative viability", "setting": "[7]; first compound 0.253 µM", "value": 1.06}, {"measurement": "relative viability", "setting": "[7]; first compound 0.8 µM", "value": 1.07}, {"measurement": "relative viability", "setting": "[7]; first compound 2.53 µM", "value": 0.844}, {"measurement": "relative viability", "setting": "[8]; first compound 0.08 µM", "value": 0.617}, {"measurement": "relative viability", "setting": "[8]; first compound 0.253 µM", "value": 0.481}, {"measurement": "relative viability", "setting": "[8]; first compound 0.8 µM", "value": 0.505}, {"measurement": "relative viability", "setting": "[8]; first compound 2.53 µM", "value": 0.489}, {"measurement": "relative viability", "setting": "[9]; first compound 0.08 µM", "value": 0.985}, {"measurement": "relative viability", "setting": "[9]; first compound 0.253 µM", "value": 0.843}, {"measurement": "relative viability", "setting": "[9]; first compound 0.8 µM", "value": 0.869}, {"measurement": "relative viability", "setting": "[9]; first compound 2.53 µM", "value": 0.733}, {"measurement": "relative viability", "setting": "[10]; first compound 0.08 µM", "value": 0.251}, {"measurement": "relative viability", "setting": "[10]; first compound 0.253 µM", "value": 0.214}, {"measurement": "relative viability", "setting": "[10]; first compound 0.8 µM", "value": 0.224}, {"measurement": "relative viability", "setting": "[10]; first compound 2.53 µM", "value": 0.221}, {"measurement": "relative viability", "setting": "[11]; first compound 0.08 µM", "value": 0.171}, {"measurement": "relative viability", "setting": "[11]; first compound 0.253 µM", "value": 0.18}, {"measurement": "relative viability", "setting": "[11]; first compound 0.8 µM", "value": 0.183}, {"measurement": "relative viability", "setting": "[11]; first compound 2.53 µM", "value": 0.151}, {"measurement": "relative viability", "setting": "[12]; first compound 0.08 µM", "value": 1.37}, {"measurement": "relative viability", "setting": "[12]; first compound 0.253 µM", "value": 1.09}, {"measurement": "relative viability", "setting": "[12]; first compound 0.8 µM", "value": 0.971}, {"measurement": "relative viability", "setting": "[12]; first compound 2.53 µM", "value": 0.771}, {"measurement": "relative viability", "setting": "[13]; first compound 0.08 µM", "value": 0.657}, {"measurement": "relative viability", "setting": "[13]; first compound 0.253 µM", "value": 0.673}, {"measurement": "relative viability", "setting": "[13]; first compound 0.8 µM", "value": 0.599}, {"measurement": "relative viability", "setting": "[13]; first compound 2.53 µM", "value": 0.588}, {"measurement": "relative viability", "setting": "[14]; first compound 0.08 µM", "value": 1.06}, {"measurement": "relative viability", "setting": "[14]; first compound 0.253 µM", "value": 0.808}, {"measurement": "relative viability", "setting": "[14]; first compound 0.8 µM", "value": 0.86}, {"measurement": "relative viability", "setting": "[14]; first compound 2.53 µM", "value": 0.552}, {"measurement": "relative viability", "setting": "[15]; first compound 0.08 µM", "value": 0.743}, {"measurement": "relative viability", "setting": "[15]; first compound 0.253 µM", "value": 0.739}, {"measurement": "relative viability", "setting": "[15]; first compound 0.8 µM", "value": 0.587}, {"measurement": "relative viability", "setting": "[15]; first compound 2.53 µM", "value": 0.396}, {"measurement": "relative viability", "setting": "[16]; first compound 0.08 µM", "value": 0.217}, {"measurement": "relative viability", "setting": "[16]; first compound 0.253 µM", "value": 0.246}, {"measurement": "relative viability", "setting": "[16]; first compound 0.8 µM", "value": 0.204}, {"measurement": "relative viability", "setting": "[16]; first compound 2.53 µM", "value": 0.139}, {"measurement": "relative viability", "setting": "[17]; first compound 0.08 µM", "value": 0.727}, {"measurement": "relative viability", "setting": "[17]; first compound 0.253 µM", "value": 0.681}, {"measurement": "relative viability", "setting": "[17]; first compound 0.8 µM", "value": 0.778}, {"measurement": "relative viability", "setting": "[17]; first compound 2.53 µM", "value": 0.729}, {"measurement": "relative viability", "setting": "[18]; first compound 0.08 µM", "value": 0.954}, {"measurement": "relative viability", "setting": "[18]; first compound 0.253 µM", "value": 0.361}, {"measurement": "relative viability", "setting": "[18]; first compound 0.8 µM", "value": 0.317}, {"measurement": "relative viability", "setting": "[18]; first compound 2.53 µM", "value": 0.184}, {"measurement": "relative viability", "setting": "[19]; first compound 0.08 µM", "value": 0.202}, {"measurement": "relative viability", "setting": "[19]; first compound 0.253 µM", "value": 0.183}, {"measurement": "relative viability", "setting": "[19]; first compound 0.8 µM", "value": 0.192}, {"measurement": "relative viability", "setting": "[19]; first compound 2.53 µM", "value": 0.167}, {"measurement": "relative viability", "setting": "[20]; first compound 0.08 µM", "value": 0.446}, {"measurement": "relative viability", "setting": "[20]; first compound 0.253 µM", "value": 0.422}, {"measurement": "relative viability", "setting": "[20]; first compound 0.8 µM", "value": 0.431}, {"measurement": "relative viability", "setting": "[20]; first compound 2.53 µM", "value": 0.406}, {"measurement": "relative viability", "setting": "[21]; first compound 0.08 µM", "value": 0.277}, {"measurement": "relative viability", "setting": "[21]; first compound 0.253 µM", "value": 0.253}, {"measurement": "relative viability", "setting": "[21]; first compound 0.8 µM", "value": 0.254}, {"measurement": "relative viability", "setting": "[21]; first compound 2.53 µM", "value": 0.195}, {"measurement": "relative viability", "setting": "[22]; first compound 0.08 µM", "value": 1.09}, {"measurement": "relative viability", "setting": "[22]; first compound 0.253 µM", "value": 0.934}, {"measurement": "relative viability", "setting": "[22]; first compound 0.8 µM", "value": 0.971}, {"measurement": "relative viability", "setting": "[22]; first compound 2.53 µM", "value": 0.799}]}]}
